Laboratory results taken from PubChem BioAssay (NCI).
Values joined by “and” are separate entries in the source; they are usually repeats but may differ in a detail not shown here. Identical values can stand only once.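 Values below derive from 48-hour exposures of cells grown in 96-well plates, with endpoints linearly interpolated between the two concentrations bracketing the appropriate inhibition level. Abbreviation: GI50, concentration required for 50% inhibition of growth. Definition used: TGI = concentration required for complete inhibition of growth.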

Key:
Experiment in all cases: growth of human tumour cells (NCI), 48 h
[1] = test system: HL-60(TB) leukemia
[2] = test system: SF-539 CNS
[3] = test system: U251 CNS
[4] = test system: RPMI-8226 leukemia
[5] = test system: IGROV1 ovarian
[6] = test system: UACC-257 melanoma
[7] = test system: NCI-H226 lung
[8] = test system: SK-MEL-2 melanoma

Row | Structure (SMILES) | GI50 [1] | TGI [1] | GI50 [2] | TGI [2] [µM] | GI50 [3] | TGI [3] | GI50 [4] | TGI [4] | GI50 [5] | TGI [5] | GI50 [6] | TGI [6] | GI50 [7] [µM] | TGI [7] [µM] | GI50 [8] [µM] | TGI [8] [µM]
1 | COc1ccc(Nn2c(SCC(=O)Nc3nc(-c4ccc(Cl)cc4)cs3)nc(C)c2C)cc1 | 2.24 µM | 59.1 µM | 4.15 µM | > 100 | 4.03 µM | > 100 µM | 5.8 µM | > 100 µM | 5.67 µM | > 100 µM | 2.97 µM | 41.1 µM | 3.26 | > 100 | 15.7 | 66.8
2 | C=C1C[C@](OC)([C@H](O)C(=O)N[C@@H](OC)[C@@H]2C[C@@H](O)C(C)(C)[C@@H](C[C@@H](COC)OC)O2)O[C@H](C)[C@@H]1C | 0.00411 µM | > 1 µM | 0.000166 µM | 0.00213 | 0.00175 µM | 0.00769 µM |  |  | 0.00295 µM | 0.0161 µM | 0.00211 µM | 0.00885 µM | 0.00202 | 0.00582 | 0.0023 | 0.025
3 | CC(C)CCOc1ccc(-c2n[nH]c(C(F)(F)F)c2-c2cncc(C#N)c2)c(O)c1 | 1.98 µM | 5.47 µM | 2.8 µM | 16.7 | 2 µM | 8.4 µM | 0.697 µM | 4.65 µM | 3.35 µM | > 100 µM | 1.69 µM | 5.54 µM | 2.57 | 9.98 | 1.75 | 5.3
4 | COc1ccc(-c2ccc(/C=N/n3c(COc4ccccc4Cl)nn(CN4CCN(C)CC4)c3=S)o2)c([N+](=O)[O-])c1 | 32.8 µM | 65.7 µM | 19.7 µM | 39.2 | 13.2 µM | 27.8 µM |  |  |  |  |  |  | 15.6 | 43.5 | 31.6 | 83.3
5 | CC(=O)N1CC(Nc2ccc(OC(F)(F)F)cc2)=CC1=O | 0.842 µM | > 100 µM | 1.31 µM | 9.01 | 3.34 µM | > 100 µM | 2.67 µM | > 100 µM | 7.81 µM | > 100 µM | > 100 µM | > 100 µM | 3.98 | 55.9 | 0.52 | 95.9
6 | Cc1ccc(C2NC(=S)NC3=C2CCOc2c3ccc3ccccc23)cc1 (stereo unspecified) | 5.86 µM | > 100 µM | > 100 µM | > 100 | > 100 µM | > 100 µM |  |  |  |  | > 100 µM | > 100 µM | > 100 | > 100 | > 100 | > 100
7 | NC(CSC(c1ccccc1)(c1ccccc1)c1ccc(Cl)cc1)C(=O)O (stereo unspecified) | 0.24 µM | 0.724 µM | 0.148 µM | 2.87 | 0.0978 µM | 18.1 µM | 0.143 µM | 21.5 µM | 0.355 µM | 34.1 µM | 3.87 µM | > 78.7 µM | 5.11 | 49 | 0.239 | 5.07
8 | CC(=O)c1c(C(F)(F)F)n([O-])c2ccc(Cl)cc2[n+]1=O | 0.681 µM | 4.65 µM | 0.161 µM | 0.526 | 0.772 µM | 4.89 µM | < 0.0422 µM | 0.171 µM | 0.322 µM |  | 4 µM | 20.8 µM | 1.4 | 3.43 | 3.18 | 12.5
9 | COc1cc(/C=C/c2cc(/C=C/c3ccc(O)c(OC)c3)n(-c3c(C)cccc3C)c(=O)n2)ccc1O | 0.271 µM | 1.11 µM |  |  | 0.635 µM | 4.08 µM |  |  | 1.24 µM | 6.87 µM | 1.62 µM | 6.54 µM | 2.36 | 7.59 | 0.436 | 1.73
10 | CC(C)C1OC(=O)C=C1Sc1ccccc1 (stereo unspecified) |  | > 100 µM |  | > 100 |  | > 100 µM |  | > 100 µM |  | > 100 µM |  | > 100 µM |  | > 100 |  | > 100
11 | NS(=O)(=O)c1cc2c(cc1Cl)NC(Cc1ccccc1)NS2(=O)=O (stereo unspecified) |  |  |  | > 100 |  | > 100 µM |  | > 100 µM |  | > 100 µM |  | > 100 µM |  | > 100 |  | > 100
12 | COC(=O)c1ccc2c(c1)nc(-c1cc3ccccc3[nH]c1=O)n2-c1cc(C(C)(C)C)[nH]n1 | 2.17 µM | > 100 µM | > 20.3 µM | > 100 | 0.987 µM | > 100 µM | 0.443 µM |  | 1.23 µM | > 100 µM |  |  | 16.5 | > 100 | 2.82 | > 100
13 | O=C1C(Br)=CC2(C=C1Br)CCN=c1c2c(O)c2nc3ccccc3c3ccnc1c23 | 2.07 µM | 5.59 µM | 1.55 µM | 6.11 | 1.67 µM | 7.04 µM | 0.591 µM | 1.57 µM | 0.846 µM | 7.22 µM |  |  |  |  |  | 
14 | C1CCN(CCC2CCCCN2)CC1 (stereo unspecified) |  | > 100 µM |  | > 100 |  | > 100 µM |  | > 100 µM |  | > 100 µM |  | > 100 µM |  | > 100 |  | > 100
15 | CCN(CC)c1cc(/C=C/c2ccc(OC)c(OC)c2)nc2cc(F)c(F)cc12 | 12.2 µM | 31.3 µM | 10.4 µM | 92.9 | 2.18 µM | 4.98 µM | 22.1 µM | > 100 µM | 3.46 µM | 12 µM | 15.2 µM | > 100 µM | 2.7 | 9.07 | 1.83 | 3.45
16 | Cc1cccc(Oc2nccc(-c3c(-c4ccc(F)cc4)ncn3C3CCNCC3)n2)c1C | 9.38 µM | > 22.4 µM | 4.84 µM | 10.4 | 7.28 µM | > 22.6 µM | 7.52 µM | > 18.6 µM | 6.76 µM | > 16.7 µM |  |  |  |  | 9.09 | > 15.9
17 | CC1/C=C/C=C/C=C/C=C/C=C/C=C/C=C/C(O[C@@H]2O[C@H](C)[C@H](O)[C@@H](O)[C@@H]2N)CC(O)C(C(=O)O)C(O)CC(=O)CC(O)CC(O)CC(O)CC(=O)CCCC(=O)CC(=O)OC1C(C)CC(C)C(O)CC(=O)c1ccc(N)cc1 (stereo partly specified) | 0.0609 µM and 0.178 µM | 0.145 µM and 0.396 µM | 0.0604 µM and 0.481 µM |  | 0.0552 µM and 0.204 µM | 0.0996 µM and 0.49 µM | 0.0748 µM and 0.238 µM | 0.171 µM and 0.682 µM | 0.0598 µM and 0.226 µM | 0.116 µM and 0.536 µM | 0.0544 µM and 0.233 µM | 0.101 µM and 0.612 µM | 0.218 | 0.581 | 0.267 | 0.813
